Patent US6914045B2, “Glycopeptide antibiotics” (Wyeth Holdings Corporation, priority 2001, dated 2005)

Assays:
Assay in all cases: in vitro antibacterial evaluation, MIC by broth dilution
Type in all cases: cell-based
[1] = test system: Staphylococcus sp.; conditions: broth dilution, 18 hours at 35° C.; for MIC Staphylococcus aureus (GC 1131): strain GC 1131
In short: (§1)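 Test organisms, which included recent clinical isolates resistant to methicillin, penicillin and/or vancomycin, were inoculated at 5×10^5 CFU/mL into Muller-Hinton II […] containing antibiotic at 64-0.06 μg/mL. Minimum inhibitory concentrations were then read as the lowest level inhibiting growth.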

[2] = test system: Streptococcus sp.; conditions: broth dilution, 18 hours at 35° C.
In short: as §1

[3] = test system: Escherichia coli
In short: as §1

[4] = test system: Enterococcus sp.; conditions: broth dilution, 18 hours at 35° C.
In short: as §1

CCCc1ccc(C2OCC3OC(OC4C(CO)OC(Oc5ccc(CC6NC(=O)C(C(C)c7ccccc7)NC(=O)CNC(=O)C(CO)NC(=O)C(C(O)C7CNC(=N)N7C7OC(CO)C(O)C(O)C7O)NC(=O)C(C(O)C7CNC(=N)N7)NC6=O)cc5)C(O)C4O)C(O)C(O)C3O2)cc1 (stereo not drawn) [Example 140, Cyclo[glycyl-β-methylphenylalanyl-O-[4-O-[4,6-O-(4-propylbenzylidene)hexopyranosyl]-hexopyranosyl]tyrosyl-3-(2-iminoimidazolidin-4-yl)seryl-3-(3-hexopyranosyl-2-iminoimidazolidin-4-yl)serylseryl]]
1 µg/mL: MIC Staphylococcus aureus (GC 1131) ([1]; inoculum 5×10^5 CFU/mL) | MIC Staphylococcus aureus (ATCC 29213) ([1]; strain ATCC 29213) | MIC Staphylococcus aureus (GC 1131) [1] | MIC Staphylococcus aureus (GC 3051) ([1]; strain GC 3051) | MIC Staphylococcus aureus (GC 4541) ([1]; strain GC 4541) | MIC Staphylococcus aureus (GC 4542) ([1]; strain GC 4542) | MIC Staphylococcus aureus-SMITH (GC 4543) ([1]; strain GC 4543) | MIC Staphylococcus aureus (GC 4544) ([1]; strain GC 4544) | MIC Staphylococcus haemolyticus (GC 4546) ([1]; strain GC 4546) | MIC Staphylococcus aureus-SMITH (GC 4543) ([1]; strain SMITH GC 4543) | MIC Escherichia coli (GC 4560) ([3]; strain GC 4560, 18 hours at 35° C.) | MIC Enterococcus avium (GC 4558) ([4]; Enterococcus avium (GC 4558)) | MIC Enterococcus faecalis (GC 2691) ([4]; Enterococcus faecalis (GC 2691)) | MIC Enterococcus faecalis (GC 3059) ([4]; Enterococcus faecalis (GC 3059)) | MIC Enterococcus faecalis (GC 4552) ([4]; Enterococcus faecalis (GC 4552)) | MIC Enterococcus faecalis (GC 4553) ([4]; Enterococcus faecalis (GC 4553)) | MIC Enterococcus faecalis (GC 4554) ([4]; Enterococcus faecalis (GC 4554)) | MIC Enterococcus faecalis (GC 6189) ([4]; Enterococcus faecalis (GC 6189)) | MIC Enterococcus faecium (GC 2243) ([4]; Enterococcus faecium (GC 2243)) | MIC Enterococcus faecium (GC 4556) ([4]; Enterococcus faecium (GC 4556)) | MIC Enterococcus faecium (GC 4557) ([4]; Enterococcus faecium (GC 4557)) | MIC Enterococcus faecium (GC 2243) ([4]; strain GC 2243) | MIC Enterococcus faecalis (GC 2691) ([4]; strain GC 2691) | MIC Enterococcus faecalis (GC 3059) ([4]; strain GC 3059) | MIC Enterococcus faecalis (GC 4552) ([4]; strain GC 4552) | MIC Enterococcus faecalis (GC 4553) ([4]; strain GC 4553) | MIC Enterococcus faecalis (GC 4554) ([4]; strain GC 4554) | MIC Enterococcus faecium (GC 4556) ([4]; strain GC 4556) | MIC Enterococcus faecium (GC 4557) ([4]; strain GC 4557) | MIC Enterococcus avium (GC 4558) ([4]; strain GC 4558) | MIC Enterococcus faecalis (GC 6189) ([4]; strain GC 6189)
<0.5 µg/mL: MIC Staphylococcus aureus (GC 3053) ([1]; strain GC 3053) | MIC Staphylococcus aureus (GC 4545) ([1]; strain GC 4545) | MIC Coagulase Negative Staphylococcus (GC 4547) ([1]; strain GC 4547) | MIC Coagulase Negative Staphylococcus (GC 4548) ([1]; strain GC 4548) | MIC Coagulase Negative Staphylococcus (GC 4549) ([1]; strain GC 4549) | MIC Coagulase Negative Staphylococcus (GC 4551) ([1]; strain GC 4551) | MIC Coagulase Negative Staphylococcus (GC 6257) ([1]; strain GC 6257) | MIC Streptococcus agalactiae (GC 4564) ([2]; Streptococcus agalactiae (GC 4564)) | MIC Streptococcus pneumoniae (ATCC 6301) ([2]; Streptococcus pneumoniae (ATCC 6301)) | MIC Streptococcus pneumoniae (GC 1894) ([2]; Streptococcus pneumoniae (GC 1894)) | MIC Streptococcus pneumoniae (GC 4565) ([2]; Streptococcus pneumoniae (GC 4565)) | MIC Streptococcus pyogenes (GC 4563) ([2]; Streptococcus pyogenes (GC 4563)) | MIC Streptococcus pneumoniae (ATCC 6301) ([2]; strain ATCC 6301) | MIC Streptococcus pneumoniae (GC 1894) ([2]; strain GC 1894) | MIC Streptococcus pyogenes (GC 4563) ([2]; strain GC 4563) | MIC Streptococcus agalactiae (GC 4564) ([2]; strain GC 4564) | MIC Streptococcus pneumoniae (GC 4565) ([2]; strain GC 4565) | MIC Enterococcus faecalis (ATCC 29212) ([4]; Enterococcus faecalis (ATCC 29212)) | MIC Enterococcus faecalis (ATCC 29212) ([4]; strain ATCC 29212)
<1 µg/mL: MIC Enterococcus faecalis (GC 2242) ([4]; Enterococcus faecalis (GC 2242)) | MIC Enterococcus faecalis (GC 2242) ([4]; strain GC 2242)
64 µg/mL: MIC Escherichia coli (ATCC 25922) ([3]; strain ATCC 25922, 18 hours at 35° C.) | MIC Escherichia coli (GC 4559) ([3]; strain GC 4559, 18 hours at 35° C.)
